# Results: ChEMBL document CHEMBL1201862, “PubChem BioAssay data set” (2004)
#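 A five-concentration, 48-hour dose response in 96-well plates underlies each endpoint, interpolated linearly between surrounding concentrations. Here, GI50 denotes the concentration required for 50% inhibition of growth.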 Calls of active or inactive are those of the source. Cut-off read from the data, not from the text of the source: active = GI50 up to about 1.1 µM and inactive = higher.
# Assays:
# Test in all cases: NCI anticancer screen, dose series, 48 h
# U-251 = system: U-251
# SK-OV-3 = system: SK-OV-3
# HT-29 = system: HT-29
# MDA-MB-435 = system: MDA-MB-435
# HCC 2998 = system: HCC 2998
# CCRF-CEM = system: CCRF-CEM
# T47D = system: T47D
# EKVX = system: EKVX
# SR = system: SR
# SW-620 = system: SW-620
# RPMI-8226 = system: RPMI-8226
# HOP-62 = system: HOP-62
# A498 = system: A498
# SK-MEL-28 = system: SK-MEL-28
# HCT-116 = system: HCT-116
# M14 = system: M14
# SK-MEL-5 = system: SK-MEL-5
# Hs-578T = system: Hs-578T
# NCI/ADR-RES = system: NCI/ADR-RES
# UACC-62 = system: UACC-62
# CAKI-1 = system: CAKI-1
# OVCAR-8 = system: OVCAR-8
# HOP-92 = system: HOP-92
# A549 = system: A549
# NCI-H226 = system: NCI-H226
# 786-0 = system: 786-0
# RXF 393 = system: RXF 393
# COLO 205 = system: COLO 205
# LOX IMVI = system: LOX IMVI
# UACC-257 = system: UACC-257
# HL-60 = system: HL-60
# SF-539 = system: SF-539
# IGROV-1 = system: IGROV-1
# ACHN = system: ACHN
# KM12 = system: KM12
# Malme-3M = system: Malme-3M
# BT-549 = system: BT-549
# PC-3 = system: PC-3
# SNB-75 = system: SNB-75
# OVCAR-4 = system: OVCAR-4
# SF-295 = system: SF-295
# MDA-N = system: MDA-N
# OVCAR-3 = system: OVCAR-3
# SN12C = system: SN12C
# DU-145 = system: DU-145
# SF-268 = system: SF-268
# SK-MEL-2 = system: SK-MEL-2
# MCF7 = system: MCF7
# NCI-H23 = system: NCI-H23
# MOLT-4 = system: MOLT-4
# UO-31 = system: UO-31
# NCI-H522 = system: NCI-H522
# OVCAR-5 = system: OVCAR-5
# TK-10 = system: TK-10
# SNB-19 = system: SNB-19
# MDA-MB-231 = system: MDA-MB-231
# K562 = system: K562
# HCT-15 = system: HCT-15
# NCI-H460 = system: NCI-H460
structure (smiles),measurement,setting,value
N#CC1=C(N)OC(c2ccc([N+](=O)[O-])cc2)C1(C#N)C#N (centres undefined),GI50,U-251,25.4 µM (inactive)
same,GI50,SK-OV-3,26.2 µM (inactive)
same,GI50,HT-29,9.14 µM (inactive)
same,GI50,MDA-MB-435,17 µM (inactive)
same,GI50,HCC 2998,9.46 µM (inactive)
same,GI50,CCRF-CEM,2.57 µM (inactive)
same,GI50,T47D,18.4 µM (inactive)
same,GI50,EKVX,14.2 µM (inactive)
same,GI50,SR,3.97 µM (inactive)
same,GI50,SW-620,13.2 µM (inactive)
same,GI50,RPMI-8226,7.78 µM (inactive)
same,GI50,HOP-62,20.7 µM (inactive)
same,GI50,A498,14.4 µM (inactive)
same,GI50,SK-MEL-28,9.4 µM (inactive)
same,GI50,HCT-116,9.77 µM (inactive)
same,GI50,M14,16.7 µM (inactive)
same,GI50,SK-MEL-5,9.48 µM (inactive)
same,GI50,Hs-578T,25.9 µM (inactive)
same,GI50,NCI/ADR-RES,19.6 µM (inactive)
same,GI50,UACC-62,8.71 µM (inactive)
same,GI50,CAKI-1,0.785 µM (active)
same,GI50,OVCAR-8,17.5 µM (inactive)
same,GI50,HOP-92,7.94 µM (inactive)
same,GI50,A549,24.4 µM (inactive)
same,GI50,NCI-H226,18.3 µM (inactive)
same,GI50,786-0,9.66 µM (inactive)
same,GI50,RXF 393,7.23 µM (inactive)
same,GI50,COLO 205,5.94 µM (inactive)
same,GI50,LOX IMVI,8.49 µM (inactive)
same,GI50,UACC-257,13.1 µM (inactive)
same,GI50,HL-60,3.46 µM (inactive)
same,GI50,SF-539,15.1 µM (inactive)
same,GI50,IGROV-1,15.6 µM (inactive)
same,GI50,ACHN,10.2 µM (inactive)
same,GI50,KM12,> 33.7 µM (inactive)
same,GI50,Malme-3M,10.2 µM (inactive)
same,GI50,BT-549,17.1 µM (inactive)
same,GI50,PC-3,17.1 µM (inactive)
same,GI50,SNB-75,20.6 µM (inactive)
same,GI50,OVCAR-4,17.8 µM (inactive)
same,GI50,SF-295,33.7 µM (inactive)
same,GI50,MDA-N,9.18 µM (inactive)
same,GI50,OVCAR-3,> 10 µM (inactive)
same,GI50,SN12C,14.5 µM (inactive)
same,GI50,DU-145,17.9 µM (inactive)
same,GI50,SF-268,23.3 µM (inactive)
same,GI50,SK-MEL-2,14.6 µM (inactive)
same,GI50,MCF7,15.6 µM (inactive)
same,GI50,NCI-H23,15.3 µM (inactive)
same,GI50,MOLT-4,33.7 µM (inactive)
same,GI50,UO-31,6.27 µM (inactive)
same,GI50,NCI-H522,6.62 µM (inactive)
same,GI50,OVCAR-5,18.7 µM (inactive)
same,GI50,TK-10,13.2 µM (inactive)
same,GI50,SNB-19,22.4 µM (inactive)
same,GI50,MDA-MB-231,16.4 µM (inactive)
same,GI50,K562,37.8 µM (inactive)
same,GI50,HCT-15,10.5 µM
Nc1nc(Cl)cc(NCC2(CO)CC(OCc3ccccc3)C2)n1 (centres undefined),GI50,U-251,90.4 µM (inactive)
same,GI50,SK-OV-3,> 100 µM (inactive)
same,GI50,HT-29,> 100 µM (inactive)
same,GI50,MDA-MB-435,43.6 µM (inactive)
same,GI50,HCC 2998,> 100 µM (inactive)
same,GI50,CCRF-CEM,> 100 µM (inactive)
same,GI50,T47D,2.94 µM (inactive)
same,GI50,EKVX,7.82 µM (inactive)
same,GI50,SR,25.1 µM (inactive)
same,GI50,SW-620,> 100 µM (inactive)
same,GI50,RPMI-8226,45.9 µM (inactive)
same,GI50,HOP-62,68.4 µM (inactive)
same,GI50,A498,16.9 µM (inactive)
same,GI50,SK-MEL-28,> 100 µM (inactive)
same,GI50,HCT-116,40.5 µM (inactive)
same,GI50,SK-MEL-5,7 µM (inactive)
same,GI50,Hs-578T,> 100 µM (inactive)
same,GI50,NCI/ADR-RES,36.1 µM (inactive)
same,GI50,UACC-62,96.4 µM (inactive)
same,GI50,CAKI-1,> 100 µM (inactive)
same,GI50,OVCAR-8,71.6 µM (inactive)
same,GI50,HOP-92,> 100 µM (inactive)
same,GI50,A549,54.8 µM (inactive)
same,GI50,NCI-H226,25.6 µM (inactive)
same,GI50,786-0,> 100 µM (inactive)
same,GI50,RXF 393,14.2 µM (inactive)
same,GI50,COLO 205,> 100 µM (inactive)
same,GI50,LOX IMVI,23.2 µM (inactive)
same,GI50,UACC-257,> 100 µM (inactive)
same,GI50,HL-60,27.3 µM (inactive)
same,GI50,SF-539,> 100 µM (inactive)
same,GI50,IGROV-1,> 100 µM (inactive)
same,GI50,ACHN,> 100 µM (inactive)
same,GI50,KM12,> 100 µM (inactive)
same,GI50,Malme-3M,> 100 µM (inactive)
same,GI50,BT-549,35.9 µM (inactive)
same,GI50,PC-3,> 100 µM (inactive)
same,GI50,SNB-75,16.4 µM (inactive)
same,GI50,OVCAR-4,27.5 µM (inactive)
same,GI50,SF-295,> 100 µM (inactive)
same,GI50,MDA-N,> 100 µM (inactive)
same,GI50,OVCAR-3,49.2 µM (inactive)
same,GI50,SN12C,> 100 µM (inactive)
same,GI50,DU-145,> 100 µM (inactive)
same,GI50,SF-268,14.8 µM (inactive)
same,GI50,SK-MEL-2,> 100 µM (inactive)
same,GI50,MCF7,30.7 µM (inactive)
same,GI50,NCI-H23,> 100 µM (inactive)
same,GI50,MOLT-4,> 10 µM (inactive)
same,GI50,UO-31,> 100 µM (inactive)
same,GI50,NCI-H522,93.1 µM (inactive)
same,GI50,OVCAR-5,> 100 µM (inactive)
same,GI50,TK-10,19.4 µM (inactive)
same,GI50,NCI-H460,78.7 µM (inactive)
same,GI50,SNB-19,41.9 µM (inactive)
same,GI50,MDA-MB-231,63.2 µM (inactive)
same,GI50,K562,14.6 µM (inactive)
same,GI50,HCT-15,65.6 µM
O=C(Nc1nc(C23CC4CC(CC(C4)C2)C3)cs1)c1cc2cc(Br)cc(Br)c2oc1=O,GI50,U-251,20.3 µM (inactive)
same,GI50,SK-OV-3,> 100 µM (inactive)
same,GI50,HT-29,> 100 µM (inactive)
same,GI50,MDA-MB-435,67.5 µM (inactive)
same,GI50,HCC 2998,75.7 µM (inactive)
same,GI50,CCRF-CEM,27.7 µM (inactive)
same,GI50,T47D,> 100 µM (inactive)
same,GI50,EKVX,39.4 µM (inactive)
same,GI50,SR,32.3 µM (inactive)
same,GI50,SW-620,43.2 µM (inactive)
same,GI50,RPMI-8226,67.9 µM (inactive)
same,GI50,HOP-62,70.8 µM (inactive)
same,GI50,A498,> 100 µM (inactive)
same,GI50,SK-MEL-28,> 100 µM (inactive)
same,GI50,HCT-116,59 µM (inactive)
same,GI50,SK-MEL-5,> 100 µM (inactive)
same,GI50,Hs-578T,27.4 µM (inactive)
same,GI50,NCI/ADR-RES,> 100 µM (inactive)
same,GI50,UACC-62,> 100 µM (inactive)
same,GI50,CAKI-1,> 100 µM (inactive)
same,GI50,OVCAR-8,34.4 µM (inactive)
same,GI50,HOP-92,46 µM (inactive)
same,GI50,A549,53 µM (inactive)
same,GI50,NCI-H226,33.2 µM (inactive)
same,GI50,786-0,32.9 µM (inactive)
same,GI50,RXF 393,31 µM (inactive)
same,GI50,COLO 205,> 100 µM (inactive)
same,GI50,LOX IMVI,> 100 µM (inactive)
same,GI50,UACC-257,> 100 µM (inactive)
same,GI50,HL-60,65.5 µM (inactive)
same,GI50,SF-539,51.8 µM (inactive)
same,GI50,IGROV-1,> 100 µM (inactive)
same,GI50,ACHN,> 100 µM (inactive)
same,GI50,KM12,> 100 µM (inactive)
same,GI50,Malme-3M,> 100 µM (inactive)
same,GI50,BT-549,> 100 µM (inactive)
same,GI50,PC-3,71.1 µM (inactive)
same,GI50,SNB-75,26.9 µM (inactive)
same,GI50,OVCAR-4,58.1 µM (inactive)
same,GI50,SF-295,40.6 µM (inactive)
same,GI50,MDA-N,87.5 µM (inactive)
same,GI50,OVCAR-3,61.4 µM (inactive)
same,GI50,SN12C,31.8 µM (inactive)
same,GI50,DU-145,65.5 µM (inactive)
same,GI50,SF-268,37.8 µM (inactive)
same,GI50,SK-MEL-2,51.5 µM (inactive)
same,GI50,MCF7,> 100 µM (inactive)
same,GI50,NCI-H23,> 100 µM (inactive)
same,GI50,MOLT-4,50.1 µM (inactive)
same,GI50,UO-31,> 100 µM (inactive)
same,GI50,NCI-H522,> 100 µM (inactive)
same,GI50,OVCAR-5,> 100 µM (inactive)
same,GI50,TK-10,> 100 µM (inactive)
same,GI50,NCI-H460,37 µM (inactive)
same,GI50,SNB-19,41.8 µM (inactive)
same,GI50,MDA-MB-231,52.6 µM (inactive)
same,GI50,K562,42.5 µM (inactive)
same,GI50,HCT-15,> 100 µM
